Laboratory results from US8378104B2 (OSI Pharmaceuticals, LLC, priority 2010, dated 2013).

How the values were obtained:
[1] = target: T1, TAK1-TAB1 fusion protein (Homo sapiens, UniProt O43318); assay: TAK1 biochemical assay (AlphaScreen, GST-MAP2K7 substrate); settings: TAK1-TAB1 fusion protein, GST-MAP2K7 substrate; read-out: mean TAK1 IC50 (Col. A)
T1 construct: purchased Carna
T1 sequence (O43318 with tags, fused parts or gaps limits assumed): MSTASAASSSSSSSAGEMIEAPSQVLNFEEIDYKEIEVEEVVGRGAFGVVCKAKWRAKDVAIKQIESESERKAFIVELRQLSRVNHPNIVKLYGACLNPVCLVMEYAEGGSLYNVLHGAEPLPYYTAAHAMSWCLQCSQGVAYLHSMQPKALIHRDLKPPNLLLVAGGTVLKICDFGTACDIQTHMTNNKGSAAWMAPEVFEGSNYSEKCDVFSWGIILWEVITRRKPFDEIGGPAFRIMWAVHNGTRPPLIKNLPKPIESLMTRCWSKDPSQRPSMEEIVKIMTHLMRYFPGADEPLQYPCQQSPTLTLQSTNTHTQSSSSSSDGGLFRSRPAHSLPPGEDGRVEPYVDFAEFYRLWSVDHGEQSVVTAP

[2] = test system: pJNK in HCT-116 cells; assay: Phospho-JNK (Thr183/Tyr185) Meso Scale ELISA assay, TNFα-stimulated HCT-116 cells; assay type: cell-based; settings: Homo sapiens, read-out: mean HCT-116 pJNK ELISA IC50 (Col. B)
Outline: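 HCT-116 cells in 1% FCS medium were pretreated with compound for 4 hrs at 37° C, then stimulated with TNFα at 10 ng/mL final for 10 minutes. Lysates were taken in ice-cold lysis buffer with phosphatase and protease inhibitors, and phospho-JNK (Thr183/Tyr185) was measured by Meso Scale ELISA.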

[3] = test system: p-p38 in HCT-116 cells; assay: Phospho-p38 Meso Scale ELISA assay, TNFα-stimulated HCT-116 cells; assay type: cell-based; settings: Homo sapiens, read-out: mean HCT-116 p-p38 ELISA IC50 (Col. C)
Outline: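 HCT-116 cells in 1% FCS medium for 2 h, then compound for 4 h at 37° C, then TNFα at 10 ng/mL final for 10 min. Lysates captured overnight at 4° C and phospho-p38 quantified by Meso Scale electrochemiluminescence ELISA.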

Measured: IC50

CC(=O)N1CCC(n2cc(-c3cnc(N)c4oc(-c5cccc(OCC#N)c5)cc34)cn2)CC1 [Example 205, (3-{4-[1-(1-acetylpiperidin-4-yl)-1H-pyrazol-4-yl]-7-aminofuro[2,3-c]pyridin-2-yl}phenoxy)acetonitrile]
100 to 1000 nM: all assays above
